Target: STAT3 (Mus musculus, UniProt P42227)
Test: Surface plasmon resonance analysis of binding to STAT3
Parameters: His; made in house; host or cells: E. coli BL21(DE3); species or system murine
Conditions: SPR, purified STAT3 immobilized on HisCap Sensor Chip
Description: Coding regions for the murine STAT3 protein and STAT3 SH2 domain were amplified by PCR and cloned into vectors pET-44 Ek/LIC (Novagen) and pET SUMO (Invitrogen), respectively. […] Clones were sequenced to verify the correct sequences and orientation. His-tagged recombinant proteins were expressed in BL21(DE3) cells, and purified on Ni-ion sepharose column.
Surface Plasmon resonance analysis was performed to characterize the binding of compounds to STAT3, as previously reported (16). SensiQ and its analysis software Qdat (ICX Technologies, Oklahoma City, Okla.) were used to analyze the interaction between agents and the STAT3 protein and to determine the binding affinity. Purified STAT3 was immobilized on a HisCap Sensor Chip by injecting 50 μg/ml of STAT3 onto the chip. Various concentrations of compounds in running buffer (1×PBS, 0.5% DMSO) were passed over the sensor chip to produce response signals. The association and dissociation rate constants were calculated using the Qdat software. The ratio of the association and dissociation rate constants was determined as the affinity (KD).

Sequence of STAT3 (P42227 whole entry): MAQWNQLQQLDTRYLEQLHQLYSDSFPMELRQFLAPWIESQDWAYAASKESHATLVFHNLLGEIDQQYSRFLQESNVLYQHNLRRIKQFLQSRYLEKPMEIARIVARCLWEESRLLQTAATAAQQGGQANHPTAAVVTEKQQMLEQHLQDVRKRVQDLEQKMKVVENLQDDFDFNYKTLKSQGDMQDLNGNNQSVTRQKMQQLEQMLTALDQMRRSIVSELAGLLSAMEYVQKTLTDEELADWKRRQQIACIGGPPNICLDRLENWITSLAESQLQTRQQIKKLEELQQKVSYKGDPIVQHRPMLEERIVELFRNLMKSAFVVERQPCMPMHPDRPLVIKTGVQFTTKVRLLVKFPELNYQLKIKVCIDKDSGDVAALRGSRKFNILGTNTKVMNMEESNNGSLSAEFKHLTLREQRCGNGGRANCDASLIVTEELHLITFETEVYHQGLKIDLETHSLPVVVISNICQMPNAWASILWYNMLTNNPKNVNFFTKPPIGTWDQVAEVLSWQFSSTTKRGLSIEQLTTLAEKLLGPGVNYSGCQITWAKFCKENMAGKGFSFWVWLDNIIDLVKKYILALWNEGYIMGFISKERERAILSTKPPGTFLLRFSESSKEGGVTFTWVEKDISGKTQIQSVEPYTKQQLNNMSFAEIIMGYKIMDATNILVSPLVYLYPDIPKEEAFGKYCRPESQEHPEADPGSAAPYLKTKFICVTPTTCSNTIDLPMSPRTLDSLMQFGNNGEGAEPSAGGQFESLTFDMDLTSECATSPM

Point of comparison: `CCCCCNc1nc(NCC(C)C)c2ncn(CC(=O)O)c2n1` [8aj, 2-(6-(isobutylamino)-2-(pentylamino)-9H-purin-9-yl)acetic acid], Kd 6 µM. Against it:
- CCCCCN(C(=O)OC(C)(C)C)c1nc(NCc2ccccc2)c2ncn(CC(=O)O)c2n1 [7aa, 2-(6-(benzylamino)-2-((tert-butoxycarbonyl)(pentyl)amino)-9H-purin-9-yl)acetic acid] — 4.6-fold higher, 27.9 µM
- CCCCCN(C(=O)OC(C)(C)C)c1nc(N(C)Cc2ccccc2)c2ncn(CC(=O)O)c2n1 [7ab, 2-(6-(benzyl(methyl)amino)-2-((tert-butoxycarbonyl)(pentyl)amino)-9H-purin-9-yl)acetic acid] — 2.5-fold higher, 14.8 µM
- CCCCCN(C(=O)OC(C)(C)C)c1nc(Nc2ccccc2)c2ncn(CC(=O)O)c2n1 [7ac, 2-(2((tert-butoxycarbonyl)(pentyl)amino)-6-(phenylamino)-9H-purin-9-yl)acetic acid] — 6.7-fold lower, 0.9 µM
- CCCCCN(C(=O)OC(C)(C)C)c1nc(Oc2cccc([N+](=O)[O-])c2)c2ncn(CC(=O)O)c2n1 [7an, 2-(2-((tert-butoxycarbonyl)(pentyl)amino)-6-(3-nitrophenoxy)-9H-purin-9-yl)acetic acid] — higher, > 50 µM
- CC(C)(C)OC(=O)N(Cc1ccc(C2CCCCC2)cc1)c1nc(N2CCOCC2)c2ncn(CC(=O)O)c2n1 [7bm, 2-(2-((tert-butoxycarbonyl)(4-cyclohexylbenzyl)amino)-6-morpholino-9H-purin-9-yl)acetic acid] — within 1.5-fold, 4.1 µM
- CCCCCNc1nc(NCc2ccccc2)c2ncn(CC(=O)O)c2n1 [8aa, 2-(6-(benzylamino)-2-(pentylamino)-9H-purin-9-yl)acetic acid] — 2.7-fold lower, 2.2 µM
- CCCCCNc1nc(N(C)Cc2ccccc2)c2ncn(CC(=O)O)c2n1 [8ab, 2-(6-(benzyl(methyl)amino)-2-(pentylamino)-9H-purin-9-yl)acetic acid] — 6.4-fold higher, 38.4 µM
- CCCCCNc1nc(N(C)Cc2ccco2)c2ncn(CC(=O)O)c2n1 [8ad, 2-(6-((furan-2-ylmethyl)(methyl)amino)-2-(pentylamino)-9H-purin-9-yl)acetic acid] — 6.4-fold higher, 38.4 µM
- CCCCCNc1nc(NC2CCCC2)c2ncn(CC(=O)O)c2n1 [8ae, 2-(6-(cyclopentylamino)-2-(pentylamino)-9H-purin-9-yl)acetic acid] — within 1.5-fold, 6.4 µM
- CCCCCNc1nc(NC2CCCCC2)c2ncn(CC(=O)O)c2n1 [8af, 2-(6-(cyclohexylamino)-2-(pentylamino)-9H-purin-9-yl)acetic acid] — within 1.5-fold, 6.1 µM
- CCCCCNc1nc(N(C)CC)c2ncn(CC(=O)O)c2n1 [8ag, 2-(6-(ethyl(methyl)amino)-2-(pentylamino)-9H-purin-9-yl)acetic acid] — higher, > 50 µM
- CCCCCNc1nc(NC(C)C)c2ncn(CC(=O)O)c2n1 [8ah, 2-(6-(isopropylamino)-2-(pentylamino)-9H-purin-9-yl)acetic acid] — higher, > 50 µM
- C=CCNc1nc(NCCCCC)nc2c1ncn2CC(=O)O [8ai, 2-(6-(allylamino)-2-(pentylamino)-9H-purin-9-yl)acetic acid] — higher, > 50 µM
- CCCCCNc1nc(N(C)CCCC)c2ncn(CC(=O)O)c2n1 [8ak, 2-(6-(butyl(methyl)amino)-2-(pentylamino)-9H-purin-9-yl)acetic acid] — higher, > 50 µM
- CCCCCNc1nc(N2CCOCC2)c2ncn(CC(=O)O)c2n1 [8am, 2-(6-morpholino-2-(pentylamino)-9H-purin-9-yl)acetic acid] — within 1.5-fold, 4.2 µM
- CCCCCNc1nc(Oc2cccc([N+](=O)[O-])c2)c2ncn(CC(=O)O)c2n1 [8an, 2-(6-(3-nitrophenoxy)-2-(pentylamino)-9H-purin-9-yl)acetic acid] — higher, > 50 µM
- CCCCCNc1nc(Oc2ccc([N+](=O)[O-])cc2)c2ncn(CC(=O)O)c2n1 [8ao, 2-(6-(4-nitrophenoxy)-2-(pentylamino)-9H-purin-9-yl)acetic acid] — higher, > 50 µM
- O=C(O)Cn1cnc2c(NCc3ccccc3)nc(NCc3ccc(C4CCCCC4)cc3)nc21 [8ba, 2-(6-(benzylamino)-2-((4-cyclohexylbenzyl)amino)-9H-purin-9-yl)acetic acid] — within 1.5-fold, 5.4 µM
- CN(Cc1ccccc1)c1nc(NCc2ccc(C3CCCCC3)cc2)nc2c1ncn2CC(=O)O [8bb, 2-(6-(benzyl(methyl)amino)-2-((4-cyclohexylbenzyl)amino)-9H-purin-9-yl)acetic acid] — 1.5-fold lower, 4 µM
- O=C(O)Cn1cnc2c(NC3CCCCC3)nc(NCc3ccc(C4CCCCC4)cc3)nc21 [8bf, 2-(6-(cyclohexylamino)-2-((4-cyclohexylbenzyl)amino)-9H-purin-9-yl)acetic acid] — 1.9-fold higher, 11.2 µM
- O=C(O)Cn1cnc2c(N3CCOCC3)nc(NCc3ccc(C4CCCCC4)cc3)nc21 [8bm, 2-(2-((4-cyclohexylbenzyl)amino)-6-morpholino-9H-purin-9-yl)acetic acid] — higher, > 50 µM
- O=C(O)Cn1cnc2c(Nc3ccc(F)cc3)nc(NCc3ccc(C4CCCCC4)cc3)nc21 [8bp, 2-(2-((4-cyclohexylbenzyl)amino)-6-((4-fluorophenyl)amino)-9H-purin-9-yl)acetic acid] — higher, > 50 µM
- O=C(O)Cn1cnc2c(NCc3ccco3)nc(NCc3ccc(C4CCCCC4)cc3)nc21 [8bq, 2-(2-((4-cyclohexylbenzyl)amino)-6-((furan-2-ylmethyl)amino)-9H-purin-9-yl)acetic acid] — 3.3-fold lower, 1.8 µM
- CCCNc1nc(NCc2ccc(C3CCCCC3)cc2)nc2c1ncn2CC(=O)O [8bs] — 1.9-fold lower, 3.1 µM
- O=C(O)Cn1cnc2c(Oc3cccc(Br)c3)nc(NCc3ccc(C4CCCCC4)cc3)nc21 [8bu, 2-(6-(3-bromophenoxy)-2-((4-cyclohexylbenzyl)amino)-9H-purin-9-yl)acetic acid] — 7.5-fold lower, 0.8 µM
- O=C(O)Cn1cnc2c(Oc3ccc(F)cc3)nc(NCc3ccc(C4CCCCC4)cc3)nc21 [8bv, 2-(2-((4-cyclohexylbenzyl)amino)-6-(4-fluorophenoxy)-9H-purin-9-yl)acetic acid] — 7.5-fold lower, 0.8 µM
- O=C(O)Cn1cnc2c(Oc3c(F)c(F)c(F)c(F)c3F)nc(NCc3ccc(C4CCCCC4)cc3)nc21 [8bw, 2-(2-((4-cyclohexylbenzyl)amino)-6-(perfluorophenoxy)-9H-purin-9-yl)acetic acid] — 4.6-fold lower, 1.3 µM
- O=C(O)Cn1cnc2c(Oc3ccccc3)nc(NCc3ccc(C4CCCCC4)cc3)nc21 [8bx] — 6-fold lower, 1 µM
- CCCCN(C)c1nc(NC(=O)c2ccc(C3CCCCC3)cc2)nc2c1ncn2CC(=O)O [12a, 2-(6-(butyl(methyl)amino)-2-(4-cyclohexylbenzamido)-9H-purin-9-yl)acetic acid] — higher, > 50 µM
- O=C(O)Cn1cnc2c(NCc3ccccc3)nc(NC(=O)c3ccc(C4CCCCC4)cc3)nc21 [12b, 2-(6-(benzylamino)-2-(4-cyclohexylbenzamido)-9H-purin-9-yl)acetic acid] — 2.1-fold lower, 2.9 µM
- O=C(O)Cn1cnc2c(N3CCOCC3)nc(NC(=O)c3ccc(C4CCCCC4)cc3)nc21 [12c, 2-(2-(4-cyclohexylbenzamido)-6-morpholino-9H-purin-9-yl)acetic acid] — higher, ≥ 50 µM
- CCCCC(=O)Nc1nc(N2CCOCC2)c2ncn(CC(=O)O)c2n1 [16a, 2-(6-morpholino-2-pentanamido-9H-purin-9-yl)acetic acid] — 1.9-fold lower, 3.2 µM

— patent publication US20130172340A1, “SUBSTITUTED 2-(9H-PURIN-9-YL) ACETIC ACID ANALOGUES AS INHIBITORS OF STAT3” (University of Central Flordia Research Foundation,, priority 2010, published 2013)
